From ChEMBL document CHEMBL1201862, “PubChem BioAssay data set” (2004)
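All cell lines were grown in 96-well plates and treated with compound for 48 hours. The concentration for 50% growth inhibition is given as GI50.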 Activity calls are given as the source filed them. Rule as the data show it: active = GI50 up to about 1.1 µM and inactive = higher.

How the values were obtained:
Assay in all cases: DTP human tumour cell line panel, 48 h
A549 = test system: A549
SK-MEL-5 = test system: SK-MEL-5
OVCAR-8 = test system: OVCAR-8
RXF 393 = test system: RXF 393
OVCAR-3 = test system: OVCAR-3
SF-268 = test system: SF-268
K562 = test system: K562
HL-60 = test system: HL-60
T47D = test system: T47D
CCRF-CEM = test system: CCRF-CEM
SF-295 = test system: SF-295
SK-OV-3 = test system: SK-OV-3
MDA-MB-231 = test system: MDA-MB-231
SR = test system: SR
A498 = test system: A498
Hs-578T = test system: Hs-578T
SNB-19 = test system: SNB-19
EKVX = test system: EKVX
NCI-H460 = test system: NCI-H460
SW-620 = test system: SW-620

| Compound | GI50 (A549) | GI50 (SK-MEL-5) | GI50 (OVCAR-8) | GI50 (RXF 393) | GI50 (OVCAR-3) | GI50 (SF-268) | GI50 (K562) | GI50 (HL-60) | GI50 (T47D) | GI50 (CCRF-CEM) | GI50 (SF-295) | GI50 (SK-OV-3) | GI50 (MDA-MB-231) | GI50 (SR) | GI50 (A498) | GI50 (Hs-578T) | GI50 (SNB-19) | GI50 (EKVX) | GI50 (NCI-H460) | GI50 (SW-620) |
| --- | --- | --- | --- | --- | --- | --- | --- | --- | --- | --- | --- | --- | --- | --- | --- | --- | --- | --- | --- | --- |
| CCCCCCCCCCCCCCCCCCNc1ccn(C2OC(COP(=O)(O)OCC(COP(=O)(O)OCC3OC(n4cc(C)c(=O)[nH]c4=O)CC3N=[N+]=[N-])OCCCCCCCCCCCCCCCCCC)C(O)C2O)c(=O)n1 (stereo not given) | 51.6 µM (inactive) | 86.5 µM (inactive) | 60.5 µM (inactive) | 51.6 µM (inactive) | > 100 µM (inactive) | 50.6 µM (inactive) | > 100 µM (inactive) | > 100 µM (inactive) | 46.7 µM (inactive) | > 100 µM (inactive) | > 100 µM (inactive) | > 100 µM (inactive) | 44.3 µM (inactive) | > 100 µM (inactive) | > 100 µM (inactive) | > 100 µM (inactive) | 19.4 µM (inactive) | > 100 µM (inactive) | 54.3 µM (inactive) | > 100 µM (inactive) |
| CC(=O)OC1CCC2(C)C(=CCC3C4CCC5(OC6CC(C)CN(C(C)=O)C6C5C)C(C)=C4C(=O)C32)C1 (stereo not given) | 14.3 µM (inactive) | 10 µM (inactive) | 18.5 µM (inactive) | 16.6 µM (inactive) | 18.8 µM (inactive) | 16 µM (inactive) | 16.3 µM (inactive) | 81.3 µM (inactive) | 7.76 µM (inactive) | > 100 µM (inactive) | 19.1 µM (inactive) | 26.5 µM (inactive) | 17.2 µM (inactive) | 16 µM (inactive) | 15.8 µM (inactive) | 16 µM (inactive) | 13.7 µM (inactive) | 7.96 µM (inactive) | 15.7 µM (inactive) | 66.8 µM (inactive) |
| CSC(=NC1=NC(C(F)(F)F)(C(F)(F)F)N=C(c2ccccc2)O1)SC | 10.5 µM (inactive) | 16.1 µM (inactive) | 5.98 µM (inactive) | 5.77 µM (inactive) | 7.46 µM (inactive) | 5.07 µM (inactive) | 6.1 µM (inactive) | 30.9 µM (inactive) | 3.1 µM (inactive) | 6.92 µM (inactive) | 7.13 µM (inactive) | 16.4 µM (inactive) | 20.3 µM (inactive) | 10.7 µM (inactive) | 17.7 µM (inactive) | 14.2 µM (inactive) | 5.22 µM (inactive) | 9.27 µM (inactive) | 12.2 µM (inactive) | 9.38 µM (inactive) |
| Cc1ccc([N+](=O)[O-])cc1S(=O)(=O)Nc1ccc(C2=NOC(c3cccs3)C2)cc1 (stereo not given) | 12.1 µM (inactive) | 7.66 µM (inactive) | 22.9 µM (inactive) | 5.02 µM (inactive) | 5.19 µM (inactive) | 18.4 µM (inactive) | 3.58 µM (inactive) | 3.55 µM (inactive) | 12.8 µM (inactive) | 8.93 µM (inactive) | 3.9 µM (inactive) | 14.2 µM (inactive) | 18.7 µM (inactive) | 2.05 µM (inactive) | 4.56 µM (inactive) | 20 µM (inactive) | 13.8 µM (inactive) | 19.9 µM (inactive) | 9.66 µM (inactive) | 7.5 µM (inactive) |
| O=C1CSC(/C(=C\c2ccc(Cl)cc2)c2nc3ccccc3[nH]2)=N1 | 4.05 µM (inactive) | 12.1 µM (inactive) | 7.91 µM (inactive) | 0.738 µM (active) | 7.78 µM (inactive) | 5.08 µM (inactive) | 34.4 µM (inactive) | 26.5 µM (inactive) | 13.9 µM (inactive) | 27.6 µM (inactive) | 9.2 µM (inactive) | 11.5 µM (inactive) | 12.7 µM (inactive) | 36.3 µM (inactive) | 4.19 µM (inactive) | 18.7 µM (inactive) | 19.2 µM (inactive) | 17 µM (inactive) | 13.3 µM (inactive) | 18.5 µM (inactive) |
| COc1cccc(/C=C2\SC(=S)N(/C=C3\C(=O)Oc4ccccc4C3=O)C2=O)c1O | 59.7 µM (inactive) | 35.8 µM (inactive) | 80 µM (inactive) | 59.4 µM (inactive) | 34.4 µM (inactive) | 46.7 µM (inactive) | 34.4 µM (inactive) | 41.2 µM (inactive) | 48.6 µM (inactive) | 38.7 µM (inactive) | 76.6 µM (inactive) | 49.2 µM (inactive) | 33.2 µM (inactive) | 30.6 µM (inactive) | 11.9 µM (inactive) | 25.5 µM (inactive) | 41.9 µM (inactive) | > 100 µM (inactive) | 48.1 µM (inactive) | 44.1 µM (inactive) |
| COP(=O)(/C=C/c1cc(C(=O)OCc2ccccc2)n(S(=O)(=O)c2ccccc2)c1)OC | > 100 µM (inactive) | > 100 µM (inactive) | > 100 µM (inactive) | > 100 µM (inactive) | > 100 µM (inactive) | > 100 µM (inactive) | > 100 µM (inactive) | > 100 µM (inactive) | > 100 µM (inactive) | > 100 µM (inactive) | > 100 µM (inactive) | > 100 µM (inactive) | > 100 µM (inactive) | > 10 µM (inactive) | > 100 µM (inactive) | > 100 µM (inactive) | > 100 µM (inactive) | > 100 µM (inactive) | > 100 µM (inactive) | > 100 µM (inactive) |
| COCn1c(=O)n(C)c(=O)c2c1nc1c(c(=O)n(C)c(=O)n1COC)[n+]2[O-] | 23.4 µM (inactive) | 5.83 µM (inactive) | 5.7 µM (inactive) | 0.789 µM (active) | 10.6 µM (inactive) | 6.65 µM (inactive) | 4.75 µM (inactive) | 12.7 µM (inactive) | 3.13 µM (inactive) | 5.37 µM (inactive) | 7.55 µM (inactive) | 7.03 µM (inactive) | 15.3 µM (inactive) | 3.77 µM (inactive) | 31.2 µM (inactive) | 8.55 µM (inactive) | 13.7 µM (inactive) | 7.85 µM (inactive) | 3.15 µM (inactive) | 11.1 µM (inactive) |
| CCOC(=O)Nc1cc2c(c(N)n1)N=C(c1ccc3ccccc3c1)CN2 | 0.299 µM (active) | < 0.0164 µM (active) | < 0.0208 µM (active) | 0.105 µM (active) | 0.0494 µM (active) | 1.92 µM (inactive) | < 0.01 µM (active) | 0.0167 µM (active) | 22.8 µM (inactive) | 0.015 µM (active) | 0.0281 µM (active) | 0.2 µM (active) | 2.39 µM (inactive) | 0.0329 µM (active) | 0.861 µM (active) | 0.0302 µM (active) | 0.0614 µM (active) | 2.51 µM (inactive) | 0.0918 µM (active) | 0.0485 µM (active) |
| O=C(NNCC(F)(F)F)c1ccncc1 | > 100 µM (inactive) | > 100 µM (inactive) | > 100 µM (inactive) | > 100 µM (inactive) | > 100 µM (inactive) | > 100 µM (inactive) | > 100 µM (inactive) | > 100 µM (inactive) | > 100 µM (inactive) | > 100 µM (inactive) | > 100 µM (inactive) | > 100 µM (inactive) | > 100 µM (inactive) | > 100 µM (inactive) | > 100 µM (inactive) | > 100 µM (inactive) | > 100 µM (inactive) | > 100 µM (inactive) | > 100 µM (inactive) | > 100 µM (inactive) |
| Cc1c(/N=N/c2ccc([N+](=O)[O-])cc2)nc2scc(-c3ccccc3)n12 | > 100 µM (inactive) | > 100 µM (inactive) | 71.6 µM (inactive) | 99.5 µM (inactive) | > 100 µM (inactive) | > 82.4 µM (inactive) | 22 µM (inactive) | 13.7 µM (inactive) | > 70.8 µM (inactive) | 21.7 µM (inactive) | 52.7 µM (inactive) | > 100 µM (inactive) | > 100 µM (inactive) | 19.5 µM (inactive) | > 100 µM (inactive) | > 78.7 µM (inactive) | > 100 µM (inactive) | > 100 µM (inactive) | 71.9 µM (inactive) | > 80.2 µM (inactive) |
| CC1OC(OC2C(OC(=O)[C@]34CCC(C)(C)C[C@H]3C3=CC[C@@H]5[C@@]6(C)CC[C@H](OC7OC(CO)C(O)C(O)C7OC7OC(CO)C(O)C(O)C7O)C(C)(C)[C@@H]6CC[C@@]5(C)[C@]3(C)CC4)OCC(O)C2O)C(O)C(O)C1OC1OCC(O)C(O)C1O (stereo not given in full) | 6.37 µM (inactive) | 14.3 µM (inactive) | 16.5 µM (inactive) | 9.48 µM (inactive) | 23.9 µM (inactive) | 6.85 µM (inactive) | 10.8 µM (inactive) | 6.11 µM (inactive) | 15.4 µM (inactive) | 18.5 µM (inactive) | 11.2 µM (inactive) | 16.3 µM (inactive) | 7.83 µM (inactive) | 7.93 µM (inactive) | 2.25 µM (inactive) | 20.7 µM (inactive) | 14.5 µM (inactive) | 5 µM (inactive) | 24.4 µM (inactive) | 16.1 µM (inactive) |
| C/C(=C\CNc1ncnc2c1ncn2CCC(=O)OC(C)(C)C)CO | > 100 µM (inactive) | > 100 µM (inactive) | > 100 µM (inactive) | > 100 µM (inactive) | > 100 µM (inactive) | > 100 µM (inactive) | > 100 µM (inactive) | > 100 µM (inactive) | > 100 µM (inactive) | > 100 µM (inactive) | > 100 µM (inactive) | > 100 µM (inactive) | > 100 µM (inactive) | > 100 µM (inactive) | > 100 µM (inactive) | > 100 µM (inactive) | > 100 µM (inactive) | > 100 µM (inactive) | > 100 µM (inactive) | > 100 µM (inactive) |
